According to patent US7829669B2, “Catalytically active recombinant memapsin and methods of use thereof” (Oklahoma Medical Research Foundation, priority 1999, dated 2010):

Tests used:
[1] = system: APP cleavage by M2 in HeLa cells; assay: APP cleavage in HeLa cells co-transfected with APP and M2, pulse-chase and immunoprecipitation; format: cell-based, human; conditions: Bafilomycin A1 in the media
M2pd = molecular target: T1, M2pd (Homo sapiens, UniProt P56817); assay: Hydrolysis of synthetic peptide substrates by M2pd, kinetics by HPLC; format: biochemical
T1 construct: Pro-memapsin 2 residues start at residue Ala-16; The two recombinant pro-memapsin 2s have different C-terminal lengths; Clone T1 ends at Thr-456; made in house
From the text: A synthetic peptide derived from this site (SEVKM/DAEFR) (SEQ ID NO:4) was hydrolyzed by M2pd at the beta-secretase site (marked by /). A second peptide (SEVNL/DAEFR) (SEQ ID NO:5) derived from the APP beta-secretase site and containing the ‘Swedish mutation’ (Mullan, M. et al., Nature Genet. 2:340-342 (1992)), known to elevate the level of alpha-beta production in cells (Citron, M. et al., Nature […] (1992)), was hydrolyzed by M2pd with much higher catalytic efficiency. Both substrates were optimally cleaved at pH 4.0. A peptide derived from the processing site of presenilin 1 (SVNM/AEGD) (SEQ ID NO:6) was also cleaved by M2pd with less efficient kinetic parameters. […]
Incubation in 0.1 M sodium acetate, pH 4.0, for 16 h at 22° C. auto-catalytically converted pro-M2pd to M2pd. […] For kinetic studies, the identified HPLC (Beckman System Gold) product peaks were integrated for quantitation. The Km and kcat values for presenilin 1 and Swedish APP peptides (Table 1) were measured by steady-state kinetics. The individual Km and kcat values for APP peptide could not be measured accurately by standard methods, so its kcat/Km value was measured by competitive hydrolysis of mixed substrates against presenilin 1 peptide (Fersht, A. “Enzyme Structure and Mechanism”, 2nd Ed., W.H. Freeman and Company, New York. (1985)).

T1 sequence (P56817 14-454): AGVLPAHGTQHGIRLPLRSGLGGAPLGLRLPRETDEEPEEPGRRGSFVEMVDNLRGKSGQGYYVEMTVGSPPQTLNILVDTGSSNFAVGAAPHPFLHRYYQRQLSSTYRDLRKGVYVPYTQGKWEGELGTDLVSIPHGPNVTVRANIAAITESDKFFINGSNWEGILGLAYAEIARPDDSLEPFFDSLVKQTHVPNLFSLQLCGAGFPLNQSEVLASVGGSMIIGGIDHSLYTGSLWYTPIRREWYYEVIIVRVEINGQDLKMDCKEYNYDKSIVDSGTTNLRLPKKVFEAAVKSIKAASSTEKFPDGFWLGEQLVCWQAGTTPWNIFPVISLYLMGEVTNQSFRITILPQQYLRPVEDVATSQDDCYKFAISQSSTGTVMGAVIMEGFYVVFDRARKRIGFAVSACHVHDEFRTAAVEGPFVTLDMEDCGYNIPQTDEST

Molecule	production of APP fragments beta N- and beta C- [1]	cleavage by M2pd (M2pd)
CO/C1=C\C(C)=C\[C@@H](C)[C@@H](O)[C@@H](C)C/C(C)=C/C=C/[C@H](OC)[C@@H]([C@@H](C)[C@@H](O)[C@H](C)[C@@]2(O)C[C@@H](O)[C@H](C)[C@@H](C(C)C)O2)OC1=O [Bafilomycin A1]	abolished the production of both APP fragments	–
KGGVVIATVIVK	–	not cleaved
